Test results from patent US20250268859A1, “OXAFURAMINE, (1R)-N-ETHYL-1-[(2R)-OXOLAN-2-YL]-2-[…], HYDROCHLORIDE AND DERIVATIVES THEREOF FOR TREATING ALZHEIMER'S DISEASE (AD), […] […], […] WITH LEWY BODIES (DLB), MIXED […], FRON[…] DEGENERATION (FTLD), AND PARKINSON'S DISEASE (PD)” (NLS Pharmaceutics AG, priority 2021, published 2025).

Experiments:
M4 (h) = target: T1, M4 (h) (Homo sapiens, UniProt P08173); assay: Radioligand binding panel, M4 (h) (antagonist radioligand); conditions: % inhibition of control specific binding
T1 construct: Eurofins (contract panel)
T1 sequence (P08173 1-479): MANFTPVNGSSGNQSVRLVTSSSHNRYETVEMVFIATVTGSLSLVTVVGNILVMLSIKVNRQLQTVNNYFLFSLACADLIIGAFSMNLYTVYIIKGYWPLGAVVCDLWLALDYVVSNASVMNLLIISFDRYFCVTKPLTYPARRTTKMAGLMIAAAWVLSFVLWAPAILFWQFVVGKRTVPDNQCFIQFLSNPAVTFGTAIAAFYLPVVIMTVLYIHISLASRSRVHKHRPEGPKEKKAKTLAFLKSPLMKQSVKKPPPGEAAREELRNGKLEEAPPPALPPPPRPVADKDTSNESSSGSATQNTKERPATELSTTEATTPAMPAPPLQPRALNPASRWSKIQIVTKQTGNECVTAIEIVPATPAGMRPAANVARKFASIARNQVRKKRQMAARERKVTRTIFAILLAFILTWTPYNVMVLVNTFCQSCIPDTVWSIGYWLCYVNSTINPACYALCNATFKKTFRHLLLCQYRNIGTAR
Description: (§1) Oxafuramine is tested at 10^−5 M, calculated as a % inhibition of control specific binding of a radioactively labeled ligand specific for each target.
(§2) This binding profile panel was broadly defined with roughly an equal number of selective, central and peripheral therapeutically relevant targets, including native animal tissues, radioligands and specific enzymes involved in cell cycle regulation in accordance with Eurofins Standard Operating Procedure (www.eurofins.fr).
(§3) For radioligand binding experiments, the half maximal inhibitory concentration (IC50) and the half maximal effective concentration (EC50) values were determined (via computer software) by nonlinear regression analysis of the competition curves using Hill equation curve fitting. The inhibition constants (Ki) were calculated using the Cheng-Prusoff equation (Ki=IC50/(1+(L/KD)), where L is the concentration of radioligand in the assay, and KD is the affinity of the radioligand for the receptor.
(§4) The results are expressed as a % control specific binding ([measured specific binding/control specific binding]×100) and as a % inhibition of control specific binding (100−[(measured specific binding/control specific binding)×100]) obtained in the presence of the test compounds. […]

GABA-A1 = target: T2, GABA-A1 (Homo sapiens, UniProt P14867+P47870); assay: Radioligand binding panel, GABA-A1 (antagonist radioligand); conditions: 10^−5 M; % inhibition of control specific binding
T2 construct: Eurofins (contract panel)
Description: as §1, §2, §3, §4

T2 sequence (P14867 28-456): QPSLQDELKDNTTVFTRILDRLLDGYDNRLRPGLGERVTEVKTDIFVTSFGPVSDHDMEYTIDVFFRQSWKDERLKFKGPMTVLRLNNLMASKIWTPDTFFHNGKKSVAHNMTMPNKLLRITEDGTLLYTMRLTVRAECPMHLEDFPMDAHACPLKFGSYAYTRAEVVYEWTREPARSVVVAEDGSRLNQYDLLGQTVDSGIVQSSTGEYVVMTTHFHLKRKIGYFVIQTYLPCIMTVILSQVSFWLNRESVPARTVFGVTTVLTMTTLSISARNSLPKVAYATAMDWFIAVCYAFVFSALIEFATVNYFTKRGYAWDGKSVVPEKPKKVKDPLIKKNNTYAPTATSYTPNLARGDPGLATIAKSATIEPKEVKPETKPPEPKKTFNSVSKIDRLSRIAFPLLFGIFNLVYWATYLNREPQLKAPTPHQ
T2 sequence (P47870 25-512 limits assumed): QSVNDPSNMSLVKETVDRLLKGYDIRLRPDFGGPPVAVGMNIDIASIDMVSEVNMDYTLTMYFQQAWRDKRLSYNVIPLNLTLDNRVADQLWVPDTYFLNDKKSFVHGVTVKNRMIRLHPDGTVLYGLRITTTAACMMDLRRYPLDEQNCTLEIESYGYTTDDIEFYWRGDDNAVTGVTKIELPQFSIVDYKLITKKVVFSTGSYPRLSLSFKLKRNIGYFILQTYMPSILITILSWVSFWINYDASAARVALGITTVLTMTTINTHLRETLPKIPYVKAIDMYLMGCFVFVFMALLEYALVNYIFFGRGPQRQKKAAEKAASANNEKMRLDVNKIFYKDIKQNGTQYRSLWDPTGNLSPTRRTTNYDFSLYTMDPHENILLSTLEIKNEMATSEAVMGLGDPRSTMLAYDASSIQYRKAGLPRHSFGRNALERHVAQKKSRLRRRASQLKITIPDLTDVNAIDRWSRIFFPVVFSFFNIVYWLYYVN
T2 sequence (P18507 40-475 partner): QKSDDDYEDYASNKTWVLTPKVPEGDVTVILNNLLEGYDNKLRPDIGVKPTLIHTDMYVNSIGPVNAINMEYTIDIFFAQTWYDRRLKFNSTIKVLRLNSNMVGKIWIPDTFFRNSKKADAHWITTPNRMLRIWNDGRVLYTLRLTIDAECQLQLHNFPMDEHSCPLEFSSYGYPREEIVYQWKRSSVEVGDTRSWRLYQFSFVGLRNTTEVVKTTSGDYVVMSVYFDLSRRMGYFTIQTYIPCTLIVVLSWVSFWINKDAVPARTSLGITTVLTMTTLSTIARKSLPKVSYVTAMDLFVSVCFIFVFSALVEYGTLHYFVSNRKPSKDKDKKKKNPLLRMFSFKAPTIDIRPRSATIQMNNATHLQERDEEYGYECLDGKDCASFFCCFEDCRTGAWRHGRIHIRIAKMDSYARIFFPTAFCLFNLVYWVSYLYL

Compound: CCN[C@H](Cc1ccccc1)[C@H]1CCCO1 [Oxafuramine, (1R)—N-ethyl-1-[(2R)-oxolan-2-yl]-2-phenylethanamine]
- inhibition at 10 µM (M4 (h); 10^−5 M): ~51%
- % Inhibition at 10^−5M, M4 (h) (antagonist radioligand) (M4 (h)): 50.8%
- inhibition at 10 µM (GABA-A1): 19.2%
